This note sets out measurements from patent US8937078B2, “Quinazolinones as prolyl hydroxylase inhibitors” (Janssen Pharmaceutica NV, priority 2009, dated 2015).

In assay [1] the target is T1, human PHD2 (PHD2181-417) (Homo sapiens, UniProt Q9GZT9).
T1 construct: Smt (SUMO) tag (cleaved yes); made in house; host or cells: E. coli BL21 (pBAD vector)
As to the kind of experiment: PHD enzymatic assay ([14C]-succinic acid production). It is filed as biochemical. The following applies: PHD2181-417, HIF-1α peptide 10 μM, average of results; read-out: Enzyme pIC50 (converted). As for the experimental part: Protein production was achieved by expression in BL21 cells grown in Terrific Broth containing 100 μg/ml ampicillin. Cell cultures were inoculated at 37° C. and grown to an OD600 of 0.8. Cultures were induced with 0.1% arabinose and grown overnight at 20° C. with continuous shaking at 225 rpm. Cells were then harvested by centrifugation and stored at −80° C. Cell pellets were suspended in Buffer A (50 mM Tris-HCl pH 7.2, 100 mM NaCl, 100 mM L-arginine, 1 mM TCEP, 0.05% (w/v) NP-40, 50 mM imidazole) followed by the addition of lysozyme and benzonase. Cells were lysed by sonication and the lysate was cleared by centrifugation (15,000 rpm, 90 min, 4° C.). The protein was purified by nickel affinity chromatography using a HisTrap Crude FF column (GE Healthcare). Samples were eluted in Buffer A with a 50-200 mM imidazole gradient. […] The flow-through was then dialyzed into 50 mM MES pH 6.0, 1 mM TCEP, 5 mM NaCl for ion exchange chromatography on a HiTrap SP Cation Exchange column (GE Healthcare). […] Fractions were pooled for further purification by size exclusion chromatography over a Superdex 75 Size Exclusion Column (GE Healthcare). Final protein was concentrated to 4 mg/ml and dialyzed in 10 mM PIPES pH 7.0, 100 mM NaCl, 0.5 mM TCEP.
(10 μM, California Peptide Research Inc., Napa, Calif.), and [5-^14C]-2-oxoglutaric acid (50 mCi/mmol, Moravek Chemicals, Brea, Calif.) in reaction buffer (40 mM Tris-HCl, pH 7.5, 0.4 mg/ml catalase, 0.5 mM DTT, 1 mM ascorbate) for 10 minutes. The reaction was stopped by addition of 50 μl of 70 mM H3PO4 and 50 μl of 500 mM NaH2PO4, pH3.2. Detection of [^14C]-succinic acid was achieved by separating from [5-^14C]-2-oxoglutaric acid by incubating the reaction mixture with 100 μl of 0.16 M DNP prepared in 30% perchloric acid. Next, 50 μl of unlabeled 20 mM 2-oxoglutaric acid/20 mM succinic acid, serving as carrier for the radioactivity, was added to the mixture, and was allowed to proceed for 30 minutes at room temperature. The reaction was then incubated with 50 μl of 1 M 2-oxoglutaric acid for 30 additional minutes at room temperature to precipitate the excess DNP. The reaction was then centrifuged at 2800×g for 10 minutes at room temperature to separate [^14C]-succinic acid in the supernatant from the precipitated [^14C]-dinitrophenylhydrazone. Fractions of the supernatant (400 μl) were counted using a beta counter (Beckman Coulter, Fullerton, Calif.).

The subject of assay [2] is Hep-3B cells. As to the kind of experiment: Cellular assay: erythropoietin secretion in Hep-3B cells. It is filed as cell-based, human. The note with it: Homo sapiens, Hep3B, 100 μM compound, 24 hours, percent of EPO secretion relative to assay control compound 7-[(4-Chloro-phenyl)-(5-methyl-isoxazol-3-ylamino)-methyl]-quinolin-8-ol, read-out: Cellular % EPO Stimulation. As for the experimental part: Hep-3B cells (ATCC, Manassas, Va.) were plated in 96-well plates at 20,000 cells per well in 100 μl of DMEM containing 10% fetal bovine serum, 1% non-essential amino acids, 50 IU/mL of penicillin and 50 μg/mL of streptomycin (all cell culture reagents from Invitrogen, Carlsbad, Calif.). Twenty-four hours after plating, compounds were added and incubated for an additional 24 hours. All compounds were tested under saturating conditions with final compound concentrations at 100 μM. Fifty microliters of the supernatant was then transferred to a human Hypoxia assay kit (Meso-Scale Discovery, Gaithersburg, Md.). Erythropoietin in the supernatant was detected according to the manufacturer's instructions as follows. EPO detection plates were blocked with 3% BSA in PBS overnight and 50 μl of the supernatant was incubated at room temperature in an orbital shaker for 2 h. Twenty-five microliters of 0.5 μg/ml anti-EPO detection antibody was added for 2 hours at room temperature in an orbital shaker. After 3 washes in PBS, 150 μl of 1× read buffer is added and the plate is then read on the MSD SECTOR instrument.

T1 sequence (Q9GZT9 181-417): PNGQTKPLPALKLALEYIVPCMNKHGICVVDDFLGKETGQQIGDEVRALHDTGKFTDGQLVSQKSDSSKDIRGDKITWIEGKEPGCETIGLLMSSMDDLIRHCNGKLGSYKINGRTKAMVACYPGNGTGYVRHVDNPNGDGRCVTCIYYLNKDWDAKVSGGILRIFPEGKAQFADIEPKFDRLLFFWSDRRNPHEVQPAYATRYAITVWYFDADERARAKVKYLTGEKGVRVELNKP

`O=C(O)c1cnn(-c2nc3ccc(Oc4cccc5ccccc45)cc3c(=O)[nH]2)c1` [Example 29, 1-[6-(naphthalen-1-yloxy)-4-oxo-3,4-dihydro-quinazolin-2-yl]-1H-pyrazole-4-carboxylic acid]: the IC50 in assay [1] was 0.0251 µM. Besides, the Emax at 100 µM in assay [2] worked out at 124%.
As for `CSc1cc2c(=O)[nH]c(-n3cc(C(=O)O)cn3)nc2cc1Cl` [Example 158, 1-(7-Chloro-6-methylsulfanyl-4-oxo-3,4-dihydro-quinazolin-2-yl)-1H-pyrazole-4-carboxylic acid], the IC50 in assay [1] is 0.0398 µM. In addition, the Emax at 100 µM in assay [2] turned out to be 15%.
The like results for `Cc1cc(C)cc(Oc2cc3c(=O)[nH]c(-n4cc(C(=O)O)cn4)nc3cc2C)c1` [Example 89, 1-[6-(3,5-dimethyl-phenoxy)-7-methyl-4-oxo-3,4-dihydro-quinazolin-2-yl]-1H-pyrazole-4-carboxylic acid] were, in that order, 0.0251 µM and 137%.
Regarding `O=C(O)c1cnn(-c2nc3ccc(C4CC4)cc3c(=O)[nH]2)c1` [Example 109, 1-(6-Cyclopropyl-4-oxo-3,4-dihydro-quinazolin-2-yl)-1H-pyrazole-4-carboxylic acid], the IC50 in assay [1] was 0.0251 µM. Also, the Emax at 100 µM in assay [2] was found to be 100%.
Consider `Cc1cccc(C)c1Oc1c(F)cc2nc(-n3cc(C(=O)O)cn3)[nH]c(=O)c2c1F` [Example 63, 1-[6-(2,6-Dimethyl-phenoxy)-5,7-difluoro-4-oxo-3,4-dihydro-quinazolin-2-yl]-1H-pyrazole-4-carboxylic acid], for which the IC50 in assay [1] was 0.02 µM. The Emax at 100 µM in assay [2] amounted to 14%.
Consider `O=C(O)c1cnn(-c2nc3ccc(Oc4cccc(C(F)(F)F)c4F)cc3c(=O)[nH]2)c1` [Example 96, 1-[6-(2-fluoro-3-trifluoromethyl-phenoxy)-4-oxo-3,4-dihydro-quinazolin-2-yl]-1H-pyrazole-4-carboxylic acid], for which the IC50 in assay [1] was 0.0251 µM. Also, the Emax at 100 µM in assay [2] was determined as 51%.
The matching figures for `O=C(O)c1cnn(-c2nc3ccc(Br)cc3c(=O)[nH]2)c1` [Example 13, 1-(6-Bromo-4-oxo-3,4-dihydro-quinazolin-2-yl)-1H-pyrazole-4-carboxylic acid]: 0.0631 µM and 35%.
The matching figures for `O=C(O)c1cnn(-c2nc3ccc(Oc4ccc5ccccc5c4)cc3c(=O)[nH]2)c1` [Example 43, 1-[6-(Naphthalen-2-yloxy)-4-oxo-3,4-dihydro-quinazolin-2-yl]-1H-pyrazole-4-carboxylic acid]: 0.0251 µM and 76%.
Consider `O=C(O)c1cnn(-c2nc3cc(Cl)cc(Cl)c3c(=O)[nH]2)c1` [Example 132, 1-(5,7-Dichloro-4-oxo-3,4-dihydro-quinazolin-2-yl)-1H-pyrazole-4-carboxylic acid], for which the IC50 in assay [1] was 0.126 µM. Besides, the Emax at 100 µM in assay [2] was 16%.
As for `Cc1ccc(-c2ccc3nc(-n4cc(C(=O)O)cn4)[nH]c(=O)c3c2)cc1` [Example 191, 1-(4-Oxo-6-p-tolyl-3,4-dihydro-quinazolin-2-yl)-1H-pyrazole-4-carboxylic acid], in assay [1], the IC50 is 0.02 µM. Also, the Emax at 100 µM in assay [2] was 31%.
On to `O=C(O)c1cnn(-c2nc3cc4c(cc3c(=O)[nH]2)OCCCO4)c1` [Example 137, 1-(4-Oxo-3,4,8,9-tetrahydro-7H-6,10-dioxa-1,3-diaza-cyclohepta[b]naphthalen-2-yl)-1H-pyrazole-4-carboxylic acid], for which, in assay [1], the IC50 was 0.0501 µM. Further, the Emax at 100 µM in assay [2] came to 15%.
Consider `O=C(O)c1cnn(-c2nc3cc(-c4ccc(Cl)cc4)ccc3c(=O)[nH]2)c1` [Example 187, 1-[7-(4-Chloro-phenyl)-4-oxo-3,4-dihydro-quinazolin-2-yl]-1H-pyrazole-4-carboxylic acid], for which, in assay [1], the IC50 is 0.0631 µM. In addition, the Emax at 100 µM in assay [2] was 24%.
`CC(C)(C)c1ccc2c(=O)[nH]c(-n3cc(C(=O)O)cn3)nc2c1` [Example 147, 1-(7-tert-Butyl-4-oxo-3,4-dihydro-quinazolin-2-yl)-1H-pyrazole-4-carboxylic acid]: in assay [1], the IC50 is 0.398 µM. Also, in assay [2], the Emax at 100 µM stood at 11%.
For the compound `Cc1cccc(C)c1NC(=O)c1ccc2nc(-n3cc(C(=O)O)cn3)[nH]c(=O)c2c1` [Example 163, 1-[6-(2,6-Dimethyl-phenylcarbamoyl)-4-oxo-3,4-dihydro-quinazolin-2-yl]-1H-pyrazole-4-carboxylic acid], the IC50 in assay [1] is 0.0398 µM. The Emax at 100 µM in assay [2] was 14%.
With `Cc1cc2nc(-n3cc(C(=O)O)cn3)[nH]c(=O)c2cc1Oc1ccccc1` [Example 59, 1-(7-Methyl-4-oxo-6-phenoxy-3,4-dihydro-quinazolin-2-yl)-1H-pyrazole-4-carboxylic acid], the IC50 in assay [1] was 0.0251 µM. In addition, the Emax at 100 µM in assay [2] worked out at 80%.
As for `O=C(O)c1cnn(-c2nc3cc4c(cc3c(=O)[nH]2)OCCO4)c1` [Example 139, 1-(4-Oxo-3,4,7,8-tetrahydro-[1,4]dioxino[2,3-g]quinazolin-2-yl)-1H-pyrazole-4-carboxylic acid], the IC50 in assay [1] is 0.0355 µM. Besides, the Emax at 100 µM in assay [2] turned out to be 15%.
For the compound `O=C(O)c1cnn(-c2nc3ccc(N4CCOCC4)cc3c(=O)[nH]2)c1` [Example 107, 1-(6-morpholin-4-yl-4-oxo-3,4-dihydro-quinazolin-2-yl)-1H-pyrazole-4-carboxylic acid], the IC50 in assay [1] is 0.0398 µM. For the same compound, the Emax at 100 µM in assay [2] was 45%.
Take `N#Cc1cccc(CNc2ccc3nc(-n4cc(C(=O)O)cn4)[nH]c(=O)c3c2)c1` [Example 178, 1-[6-(3-Cyano-benzylamino)-4-oxo-3,4-dihydro-quinazolin-2-yl]-1H-pyrazole-4-carboxylic acid]: in assay [1], the IC50 was 0.02 µM. Also, the Emax at 100 µM in assay [2] turned out to be 12%.
The like results for `O=C(O)c1cnn(-c2nc3cc(Cc4ccccc4)ccc3c(=O)[nH]2)c1` [Example 136, 1-(7-Benzyl-4-oxo-3,4-dihydro-quinazolin-2-yl)-1H-pyrazole-4-carboxylic acid] were, in that order, 0.0316 µM and 23%.
With `O=C(O)c1cnn(-c2nc3ccc(NCc4c(Cl)cccc4Cl)cc3c(=O)[nH]2)c1` [Example 181, 1-[6-(2,6-Dichloro-benzylamino)-4-oxo-3,4-dihydro-quinazolin-2-yl]-1H-pyrazole-4-carboxylic acid], in assay [1], the IC50 is 0.0251 µM. In addition, the Emax at 100 µM in assay [2] amounted to 118%.
For `O=C(O)c1cnn(-c2nc3cc(Br)ccc3c(=O)[nH]2)c1` [Example 134, 1-(7-Bromo-4-oxo-3,4-dihydro-quinazolin-2-yl)-1H-pyrazole-4-carboxylic acid], the IC50 in assay [1] was 0.0501 µM. In addition, the Emax at 100 µM in assay [2] stood at 18%.
As to `O=C(O)c1cnn(-c2nc3cc(Cl)c(OC(F)(F)F)cc3c(=O)[nH]2)c1` [Example 22, 1-(7-Chloro-4-oxo-6-trifluoromethoxy-3,4-dihydro-quinazolin-2-yl)-1H-pyrazole-4-carboxylic acid], in assay [1], the IC50 is 0.0316 µM. Moreover, the Emax at 100 µM in assay [2] was 61%.
The like results for `O=C(O)c1cnn(-c2nc3cc(F)c(C4CCCCC4)cc3c(=O)[nH]2)c1` [Example 110, 1-(6-Cyclohexyl-7-fluoro-4-oxo-3,4-dihydro-quinazolin-2-yl)-1H-pyrazole-4-carboxylic acid] were, in that order, 0.158 µM and 47%.
